From paper PMC11890623, “Pseudomonas aeruginosa acyl-CoA dehydrogenases and structure-guided inversion of their substrate specificity” (Nature Communications, 2025)

What was measured:
FadE1 = target: T1, FadE1 (Pseudomonas aeruginosa, UniProt Q9I612); assay: X-ray crystal structure, […] Å; assay type: binding
T1 construct: gene PA0506; full-length ORF, His6 tag removed by TEV

FadE2 = target: T2, FadE2 (Pseudomonas aeruginosa, UniProt Q9I610); assay: X-ray crystal structure, […] Å; assay type: binding
T2 construct: gene PA0508; full-length ORF, His6 tag removed by TEV
T2 sequence (Q9I610 entry or part of it): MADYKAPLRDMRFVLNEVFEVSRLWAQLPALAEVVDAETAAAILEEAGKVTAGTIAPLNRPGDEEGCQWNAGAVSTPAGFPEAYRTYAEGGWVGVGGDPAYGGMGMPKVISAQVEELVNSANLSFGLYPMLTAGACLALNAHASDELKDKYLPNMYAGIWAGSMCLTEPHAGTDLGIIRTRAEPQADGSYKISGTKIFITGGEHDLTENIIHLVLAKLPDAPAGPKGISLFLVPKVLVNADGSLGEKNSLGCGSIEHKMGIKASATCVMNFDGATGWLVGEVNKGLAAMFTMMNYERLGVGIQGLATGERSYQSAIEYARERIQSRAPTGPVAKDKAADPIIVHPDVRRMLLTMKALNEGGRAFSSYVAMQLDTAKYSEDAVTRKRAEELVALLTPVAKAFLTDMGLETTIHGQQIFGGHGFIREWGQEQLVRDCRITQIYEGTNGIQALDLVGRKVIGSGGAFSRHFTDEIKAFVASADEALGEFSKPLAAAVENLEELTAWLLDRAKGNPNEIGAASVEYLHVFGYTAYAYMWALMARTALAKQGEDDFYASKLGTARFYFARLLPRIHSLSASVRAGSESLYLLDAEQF

T1 sequence (Q9I612 entry or part of it): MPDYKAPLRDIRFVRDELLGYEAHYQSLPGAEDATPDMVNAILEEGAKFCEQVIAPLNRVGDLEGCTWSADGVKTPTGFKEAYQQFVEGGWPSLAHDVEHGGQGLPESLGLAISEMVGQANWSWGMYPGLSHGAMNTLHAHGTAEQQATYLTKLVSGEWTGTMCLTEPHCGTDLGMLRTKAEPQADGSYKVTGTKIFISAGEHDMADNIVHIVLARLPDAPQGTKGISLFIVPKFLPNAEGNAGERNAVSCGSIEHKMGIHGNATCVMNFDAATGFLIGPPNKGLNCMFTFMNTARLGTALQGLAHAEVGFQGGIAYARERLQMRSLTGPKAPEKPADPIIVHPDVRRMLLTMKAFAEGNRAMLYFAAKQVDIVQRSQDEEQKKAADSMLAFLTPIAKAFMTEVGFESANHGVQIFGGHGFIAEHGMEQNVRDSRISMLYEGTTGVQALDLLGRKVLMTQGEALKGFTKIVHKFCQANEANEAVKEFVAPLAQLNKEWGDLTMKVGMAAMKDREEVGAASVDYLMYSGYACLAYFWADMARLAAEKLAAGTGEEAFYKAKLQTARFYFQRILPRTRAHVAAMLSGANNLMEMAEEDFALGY

## Cc1cc2nc3c(=O)[nH]c(=O)nc-3n(C[C@H](O)[C@H](O)[C@H](O)COP(=O)(O)OP(=O)(O)OC[C@H]3O[C@@H](n4cnc5c(N)ncnc54)[C@H](O)[C@@H]3O)c2cc1C [FAD]
FadE1
  X-ray crystal structure, 2.08 Å: One FAD molecule was bound in each protomer of FadE1 and FadE2.
FadE2
  X-ray crystal structure, 1.94 Å: One FAD molecule was bound in each protomer of FadE1 and FadE2.
